The species named for experiment [1] is Oryctolagus cuniculus. Nature of the experiment: The compound was tested for DA agonistic activity in the isolated perfused rabbit ear artery. It counts as functional. Conditions: read-out: ED50 (the source's name).
Experiment [2] concerns the target D(1A) dopamine receptor (Rattus norvegicus) (UniProt P18901). As to the kind of experiment: Tested for its ability to stimulate rat caudate adenylate cyclase (Dopamine receptor D1) at 10 uM.
Experiment [3] addresses D(2) dopamine receptor (Bos taurus) (UniProt P20288). As to the kind of experiment: Ability to inhibit specific [3H]spiroperidol binding to bovine anterior pituitary homogenate, at 10 uM.
In experiment [4] the target is D(1A) dopamine receptor (Rattus norvegicus) (UniProt P18901). Nature of the experiment: Tested for its ability to inhibit rat caudate adenylate cyclase (Dopamine receptor D1) at 10 uM.
The species entered for experiment [5] is Oryctolagus cuniculus. As to the kind of experiment: Compound was tested for DA agonistic activity in the isolated perfused rabbit ear artery. Conditions: read-out: ED50 (the source's name). It counts as functional.
For experiment [6], the target named is D(2) dopamine receptor (Bos taurus) (UniProt P20288). As to the kind of experiment: Compound was tested for its ability to inhibit specific [3H]spiroperidol binding to bovine anterior pituitary homogenate, at 10 uM.

The record followed here is ChEMBL document CHEMBL1122865 (J Med Chem, 1985).

The term inhibition denotes the share of the control response that was lost under treatment.

The structures appear in SMILES notation.

Chain of D(2) dopamine receptor (Bos taurus) (P20288 whole entry): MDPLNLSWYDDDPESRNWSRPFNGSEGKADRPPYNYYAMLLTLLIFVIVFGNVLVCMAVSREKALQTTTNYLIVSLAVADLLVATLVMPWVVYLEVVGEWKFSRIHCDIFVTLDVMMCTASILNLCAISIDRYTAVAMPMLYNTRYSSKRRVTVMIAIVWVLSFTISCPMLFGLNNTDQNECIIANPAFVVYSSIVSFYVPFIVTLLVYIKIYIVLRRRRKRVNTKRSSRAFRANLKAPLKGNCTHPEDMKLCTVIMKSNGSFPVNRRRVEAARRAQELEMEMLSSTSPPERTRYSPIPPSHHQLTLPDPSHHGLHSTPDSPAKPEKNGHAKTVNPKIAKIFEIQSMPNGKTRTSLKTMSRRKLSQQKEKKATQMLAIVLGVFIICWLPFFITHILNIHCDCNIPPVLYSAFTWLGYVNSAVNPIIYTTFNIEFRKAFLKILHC
Chain of D(1A) dopamine receptor (Rattus norvegicus) (P18901 whole entry, the tested form may be a part): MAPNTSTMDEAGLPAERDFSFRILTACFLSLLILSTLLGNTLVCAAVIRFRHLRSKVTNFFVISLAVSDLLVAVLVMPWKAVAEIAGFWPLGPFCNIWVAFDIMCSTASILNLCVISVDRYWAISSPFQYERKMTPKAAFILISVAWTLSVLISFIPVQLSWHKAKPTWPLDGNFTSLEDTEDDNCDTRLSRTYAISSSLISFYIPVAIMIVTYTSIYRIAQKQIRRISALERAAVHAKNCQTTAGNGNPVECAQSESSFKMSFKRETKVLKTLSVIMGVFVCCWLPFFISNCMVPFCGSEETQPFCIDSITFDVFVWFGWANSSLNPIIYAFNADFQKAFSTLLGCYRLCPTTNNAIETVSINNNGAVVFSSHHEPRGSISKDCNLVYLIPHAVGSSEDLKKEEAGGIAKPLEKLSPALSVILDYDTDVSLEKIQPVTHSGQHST

Regarding `NC1CCc2cc(O)c(O)cc2C1` (stereo not given), the EC50 in the experiment filed under Oryctolagus cuniculus [1] came to 4.6 nM.

In experiment [2], `COc1ccc(CCNCCc2ccccc2)c2ccc(O)nc12` displayed a Stimulation of 0%. This molecule returned a Displacement in experiment [3] of 9%. The inhibition in experiment [4] was 0%.

In turn, `CCCN(CCC)CCc1cccc2nc(O)ccc12` had a Stimulation in experiment [2] of 4%. The same molecule gave a Displacement in experiment [3] of 30%. This molecule had an inhibition in experiment [4] of 0%.

For `CCCN(CCc1ccc(O)cc1)CCc1ccc(O)c2nc(O)ccc12`, in the experiment listed under Oryctolagus cuniculus [5], the EC50 is 12.3 nM. Moreover, the Kb in experiment [6] was determined as 770 nM. In experiment [2], this molecule gave a Stimulation of 0%. In addition, the Displacement in experiment [3] was determined as 78%. Moreover, the inhibition in experiment [4] amounted to 0%.

Consider `CCCN(CCC)CCc1ccc(OC)c2nc(O)ccc12`, for which the Stimulation in experiment [2] turned out to be 3%. The Displacement in experiment [3] was 6%. Moreover, the inhibition in experiment [4] was 0%.

The molecule `COc1ccc(CCN)c2ccc(O)nc12` gave a Stimulation in experiment [2] of 3%. In experiment [3], this molecule showed a Displacement of 9%. Moreover, in experiment [4], the inhibition was determined as 1%.

On to `NCCc1ccc(O)c2nc(O)ccc12`, for which the EC50 in the experiment listed under Oryctolagus cuniculus [5] was 140 nM. For the same molecule, the Kb in experiment [6] amounted to 4040 nM. This molecule also displayed a Stimulation in experiment [2] of 27%. In experiment [3], this molecule registered a Displacement of 56%. Also, in experiment [4], the inhibition stood at 1%.

For `NCCc1ccc(O)c(O)c1` [DOPAMINE], in the experiment filed under Oryctolagus cuniculus [1], the EC50 was 37 nM.

As to `Oc1ccc(CCNCCc2ccc(O)c3nc(O)ccc23)cc1`, the EC50 in the experiment listed under Oryctolagus cuniculus [5] is 136 nM. For the same molecule, the Stimulation in experiment [2] was determined as 2%. The molecule also had a Displacement in experiment [3] of 42%. The molecule also returned an inhibition in experiment [4] of 6%.

In turn, `NCCc1cccc2nc(O)ccc12` returned a Stimulation in experiment [2] of 1%. In experiment [3], this molecule registered a Displacement of 21%. Further, the inhibition in experiment [4] stood at 5%.

Turning to `CCCN(CCC)CCc1ccc(O)c2c1CCC(=O)N2`, in the experiment filed under Oryctolagus cuniculus [5], the EC50 came out at 252 nM. In experiment [6], this molecule gave a Kb of 15100 nM. Also, the Stimulation in experiment [2] worked out at 1%. Moreover, in experiment [3], the Displacement was found to be 40%. In experiment [4], the inhibition is 0%.

In the case of `CCCN(CCC)CCc1ccc(O)c2[nH]c(=O)ccc12`, the EC50 in the experiment listed under Oryctolagus cuniculus [5] stood at 493 nM. Further, the Stimulation in experiment [2] came to 1%. In experiment [3], the Displacement was determined as 19%. The same molecule came in with an inhibition in experiment [4] of 0%.

In the case of `CCCN(CCc1ccccc1)CCc1ccc(O)c2nc(O)ccc12`, in the experiment listed under Oryctolagus cuniculus [5], the EC50 was determined as 128 nM. The molecule also displayed a Kb in experiment [6] of 2020 nM. Further, the Stimulation in experiment [2] came to 0%. This molecule showed a Displacement in experiment [3] of 72%. In addition, the inhibition in experiment [4] was found to be 6%.
